Results taken from ChEMBL document CHEMBL1201862, “PubChem BioAssay data set” (2004).
Active and inactive are the calls of the source. For most assays here, no stated cut-off is given here; in the data, actives have a measured EC50 and inactives only a lower limit.

Legend:
[1] = Trypanosoma cruzi growth suppression in host cells – NIH3T3 host cells, beta-gal luminescence, confirmation (AID 2044); type: functional, cell-based;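 further: intracellular parasites grown in NIH/3T3 mouse fibroblasts as host cells; luminescent beta-galactosidase reporter signal from transgenic T. cruzi replicating inside host cells; inhibitors lower the luminescence signal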
[2] = NIH3T3 cell viability loss – ATP luminescence, mouse fibroblasts, counter-screen, dose response (AID 2010); type: functional, cell-based;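 further: cells exposed to compound for about 90 hours before reading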
[3] = reduction of Shn3 3'UTR-driven luciferase in osteoblasts – cell-based, Clone20 osteoblasts, firefly luciferase, cherry-picked, dose response (AID 624132); type: functional;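 further: firefly luciferase luminescence from reporter carrying the Shn3 3'UTR in osteoblasts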
[4] = loss of viability in HepG2 cells – cell-based, CellTiter-Glo, cherry-picked, cytotoxicity control for Shn3 inhibitor project, dose response (AID 624134); type: functional
[5] = non-specific 3'UTR reporter inhibition in Clone20-Shn3RL – cell-based, Renilla luciferase, cherry-picked, counter-screen for Shn3 inhibitor project, dose response (AID 624133); type: functional
[6] = target: T1, High affinity choline transporter 1 (Homo sapiens, UniProt Q9GZV3); test: human choline transporter blockers, potency – cell-based, 5-point CRC, membrane potential dye, dose response (AID 504840); type: functional
T1 sequence (Q9GZV3 whole entry): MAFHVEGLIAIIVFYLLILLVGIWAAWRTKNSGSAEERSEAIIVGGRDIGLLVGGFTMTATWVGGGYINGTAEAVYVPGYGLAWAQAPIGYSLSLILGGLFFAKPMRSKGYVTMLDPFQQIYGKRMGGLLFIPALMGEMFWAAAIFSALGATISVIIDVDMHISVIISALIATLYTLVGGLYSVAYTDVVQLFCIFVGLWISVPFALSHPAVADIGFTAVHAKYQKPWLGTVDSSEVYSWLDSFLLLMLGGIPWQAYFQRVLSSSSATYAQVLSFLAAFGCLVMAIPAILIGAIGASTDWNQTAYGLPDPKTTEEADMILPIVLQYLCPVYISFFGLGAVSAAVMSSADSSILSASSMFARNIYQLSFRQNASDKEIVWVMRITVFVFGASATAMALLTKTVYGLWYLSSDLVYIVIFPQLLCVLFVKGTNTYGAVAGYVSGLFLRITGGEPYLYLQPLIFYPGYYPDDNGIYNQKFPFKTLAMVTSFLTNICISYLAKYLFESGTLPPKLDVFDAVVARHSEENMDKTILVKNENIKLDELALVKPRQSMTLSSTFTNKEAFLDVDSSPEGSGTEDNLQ

[7] = target: T2, Polyadenylate-binding protein 1 (Homo sapiens, UniProt P11940); test: MLLE binding blockers, Cy5 peptide tracer – biochemical, fluorescence polarization, Cy5-PAM2 peptide, secondary, miRNA deadenylation inhibitor project, dose response (AID 602260); type: functional; conditions: read-out: IC50_Mean
T2 sequence (P11940 whole entry): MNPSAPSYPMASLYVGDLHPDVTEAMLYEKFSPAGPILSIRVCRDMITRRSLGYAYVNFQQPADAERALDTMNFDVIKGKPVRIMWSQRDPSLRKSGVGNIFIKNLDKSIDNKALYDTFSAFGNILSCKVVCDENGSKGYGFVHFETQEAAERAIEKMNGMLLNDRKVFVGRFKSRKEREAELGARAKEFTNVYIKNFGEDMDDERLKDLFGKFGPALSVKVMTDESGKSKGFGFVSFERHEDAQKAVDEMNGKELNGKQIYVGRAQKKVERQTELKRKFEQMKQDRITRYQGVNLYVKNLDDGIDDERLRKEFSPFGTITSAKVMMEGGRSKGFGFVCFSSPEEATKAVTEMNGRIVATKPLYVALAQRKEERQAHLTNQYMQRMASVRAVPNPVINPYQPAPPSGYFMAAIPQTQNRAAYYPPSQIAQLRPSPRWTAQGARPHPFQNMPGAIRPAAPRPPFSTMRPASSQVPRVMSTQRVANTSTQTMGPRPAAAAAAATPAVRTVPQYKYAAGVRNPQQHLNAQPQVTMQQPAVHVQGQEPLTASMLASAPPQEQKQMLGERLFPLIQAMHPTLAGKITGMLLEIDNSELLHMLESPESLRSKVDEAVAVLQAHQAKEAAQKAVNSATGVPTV

Genome polyprotein = Genome polyprotein (dengue virus type 2, UniProt P29990); test: flavivirus cap methylation enzyme inhibition – biochemical, confirmation dose response, primary screen (AID 588689); type: functional
Genome polyprotein, sequence (P29990 2492-3391 limits assumed): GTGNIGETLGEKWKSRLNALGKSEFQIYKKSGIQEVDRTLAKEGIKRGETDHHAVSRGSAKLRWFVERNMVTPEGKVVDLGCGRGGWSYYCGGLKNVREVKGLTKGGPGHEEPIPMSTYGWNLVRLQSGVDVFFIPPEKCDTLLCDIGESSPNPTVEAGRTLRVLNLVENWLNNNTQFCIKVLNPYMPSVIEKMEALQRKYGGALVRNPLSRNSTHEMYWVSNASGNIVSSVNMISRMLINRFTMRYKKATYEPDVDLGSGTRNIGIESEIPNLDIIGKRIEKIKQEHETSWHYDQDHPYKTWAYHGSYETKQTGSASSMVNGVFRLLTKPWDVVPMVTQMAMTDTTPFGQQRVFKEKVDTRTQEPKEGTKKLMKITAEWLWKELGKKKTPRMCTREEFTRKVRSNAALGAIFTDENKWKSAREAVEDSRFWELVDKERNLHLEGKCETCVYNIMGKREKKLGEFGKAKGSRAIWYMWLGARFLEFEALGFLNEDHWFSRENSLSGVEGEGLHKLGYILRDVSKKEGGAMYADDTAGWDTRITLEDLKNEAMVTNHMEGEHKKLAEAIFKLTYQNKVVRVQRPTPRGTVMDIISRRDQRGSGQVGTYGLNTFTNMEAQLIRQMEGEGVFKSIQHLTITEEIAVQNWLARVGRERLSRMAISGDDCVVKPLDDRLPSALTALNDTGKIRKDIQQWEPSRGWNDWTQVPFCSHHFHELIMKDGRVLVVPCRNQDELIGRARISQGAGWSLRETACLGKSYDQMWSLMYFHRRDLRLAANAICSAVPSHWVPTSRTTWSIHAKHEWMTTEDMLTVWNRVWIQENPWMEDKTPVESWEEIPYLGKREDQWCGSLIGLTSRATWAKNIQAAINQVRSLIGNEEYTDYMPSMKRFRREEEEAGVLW

[8] = target: T2, Polyadenylate-binding protein 1; test: MLLE domain peptide-binding blockers, IC50 – biochemical, fluorescence polarization, FITC-PAM2 peptide, dose response (AID 602259); type: functional; conditions: read-out: IC50_Mean
[9] = luciferase reporter signal suppression in cells – H4 neuroglioma cells, luminescence, dose response (AID 1990); type: functional, cell-based
[10] = Luminescence Cell-Based Dose Response HTS to Identify Inhibitors of 5'UTR Stem-Loop Driven Prion Protein mRNA Translation in H4 Neuroglioblastoma Cells. [Related pubchem assays: 1827 (Project Summary), 1813 (Primary HTS)]; type: functional
[11] = alpha-synuclein stem-loop luciferase translation blockers – H4 neuroglioma cells, luminescence, confirmation (AID 1988); type: functional, cell-based
cells = type: functional
[12] = target: Luciferin 4-monooxygenase (Photinus pyralis, UniProt P08659); test: inhibition of purified Photinus pyralis luciferase – biochemical, luminescence, dose response (AID 1891)
Luciferin 4-monooxygenase, sequence (P08659 whole entry): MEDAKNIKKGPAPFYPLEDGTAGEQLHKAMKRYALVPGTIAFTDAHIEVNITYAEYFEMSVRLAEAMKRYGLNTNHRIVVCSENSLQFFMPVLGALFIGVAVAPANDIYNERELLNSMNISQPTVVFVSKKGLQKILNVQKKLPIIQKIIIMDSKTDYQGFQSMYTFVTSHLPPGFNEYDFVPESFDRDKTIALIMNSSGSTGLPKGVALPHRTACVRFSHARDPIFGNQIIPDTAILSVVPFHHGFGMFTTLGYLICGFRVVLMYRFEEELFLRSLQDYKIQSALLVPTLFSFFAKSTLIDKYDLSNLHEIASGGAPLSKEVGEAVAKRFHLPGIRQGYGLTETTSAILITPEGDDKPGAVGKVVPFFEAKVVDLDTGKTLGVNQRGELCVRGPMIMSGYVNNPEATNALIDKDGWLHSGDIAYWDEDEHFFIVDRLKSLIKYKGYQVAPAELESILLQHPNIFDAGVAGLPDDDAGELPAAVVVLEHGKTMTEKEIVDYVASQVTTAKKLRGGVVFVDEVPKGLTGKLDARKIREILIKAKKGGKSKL

[13] = Luminescence Cell-Based Dose Confirmation HTS to Identify Inhibitors of Platelet Dense Granule Release. [Related pubchem assays: 1663 (Primary HTS), 1678 (Summary of Project)]; type: functional
[14] = test system: Streptococcus sp. 'group A'; test: Streptococcus pyogenes SK(-)GAS viability under kanamycin – luminescence, BacTiterGlo, confirmation, counter-screen for streptokinase expression inhibitor project, dose response (AID 1900); type: functional, organism-based
Streptococcus = test: GAS UMAA2166 growth inhibition – luminescence, BacTiterGlo, counter-screen for streptokinase expression inhibitor project, dose response (AID 1915); type: functional, organism-based;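 further: potency for reduction of bacterial viability or growth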
[15] = target: T3, Replicative DNA helicase DnaB (Mycobacterium tuberculosis, UniProt P9WMR3); test: DnaB intein splicing inhibitors, dose response, biochemical, cell-free fluorescence (AID 449749); type: functional
T3 sequence (P9WMR3 whole entry): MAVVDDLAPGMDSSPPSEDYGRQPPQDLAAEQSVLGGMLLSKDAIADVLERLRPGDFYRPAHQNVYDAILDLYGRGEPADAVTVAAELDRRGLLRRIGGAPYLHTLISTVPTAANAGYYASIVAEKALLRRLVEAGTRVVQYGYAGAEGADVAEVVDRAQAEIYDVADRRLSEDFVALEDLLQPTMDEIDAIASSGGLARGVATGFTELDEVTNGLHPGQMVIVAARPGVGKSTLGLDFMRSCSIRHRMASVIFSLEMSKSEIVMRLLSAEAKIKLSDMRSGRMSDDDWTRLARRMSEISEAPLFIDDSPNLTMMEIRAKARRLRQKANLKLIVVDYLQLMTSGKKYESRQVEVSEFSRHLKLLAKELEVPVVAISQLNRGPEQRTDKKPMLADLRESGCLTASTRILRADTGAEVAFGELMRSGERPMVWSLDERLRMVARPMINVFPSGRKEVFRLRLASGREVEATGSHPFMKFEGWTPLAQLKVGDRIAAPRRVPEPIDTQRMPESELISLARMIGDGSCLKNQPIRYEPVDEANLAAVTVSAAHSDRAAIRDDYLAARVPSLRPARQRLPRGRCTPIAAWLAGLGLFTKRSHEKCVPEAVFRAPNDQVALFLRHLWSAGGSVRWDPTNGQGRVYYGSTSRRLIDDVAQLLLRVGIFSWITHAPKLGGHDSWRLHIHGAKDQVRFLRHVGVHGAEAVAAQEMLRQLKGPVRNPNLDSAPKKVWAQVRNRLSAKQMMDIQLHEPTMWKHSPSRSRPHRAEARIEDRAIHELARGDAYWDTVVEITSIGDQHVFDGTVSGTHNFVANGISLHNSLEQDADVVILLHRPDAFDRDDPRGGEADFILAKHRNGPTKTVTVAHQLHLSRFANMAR

Protein RecA = target: T4, Protein RecA (Mycobacterium tuberculosis, UniProt P9WHJ3); test: Fluorescence Cell-Free Homogeneous Dose Retest to Identify Inhibitors of RecA-Intein Splicing Activity. [Related pubchem assays (depositor defined):AID2097, AID2223, AID489010, AID492950]; type: functional
T4 sequence (P9WHJ3 whole entry): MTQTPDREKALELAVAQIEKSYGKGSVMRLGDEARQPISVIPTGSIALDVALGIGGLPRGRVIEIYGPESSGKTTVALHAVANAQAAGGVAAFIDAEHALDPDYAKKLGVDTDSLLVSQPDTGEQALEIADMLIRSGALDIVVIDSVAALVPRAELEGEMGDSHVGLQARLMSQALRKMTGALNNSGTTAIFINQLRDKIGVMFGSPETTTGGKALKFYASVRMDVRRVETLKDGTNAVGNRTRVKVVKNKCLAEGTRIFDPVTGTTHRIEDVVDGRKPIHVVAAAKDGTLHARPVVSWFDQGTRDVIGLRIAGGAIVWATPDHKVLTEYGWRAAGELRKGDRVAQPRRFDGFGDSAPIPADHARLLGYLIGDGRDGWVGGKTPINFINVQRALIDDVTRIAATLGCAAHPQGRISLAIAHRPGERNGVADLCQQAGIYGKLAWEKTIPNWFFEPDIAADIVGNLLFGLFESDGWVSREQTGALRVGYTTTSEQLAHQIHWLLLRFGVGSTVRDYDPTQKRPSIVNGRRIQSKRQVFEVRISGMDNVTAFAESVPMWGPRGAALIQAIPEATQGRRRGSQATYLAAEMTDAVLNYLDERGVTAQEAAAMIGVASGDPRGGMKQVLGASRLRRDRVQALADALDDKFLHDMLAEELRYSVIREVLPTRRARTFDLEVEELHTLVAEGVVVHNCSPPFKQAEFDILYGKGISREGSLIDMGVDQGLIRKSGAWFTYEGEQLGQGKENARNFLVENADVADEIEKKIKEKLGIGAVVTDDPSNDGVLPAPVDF

SMILES: Clc1ccc(C[n+]2cc(-c3ccccc3)n3c2CCCCC3)c(Cl)c1
- EC50 [1]: 273 nM (active)
- EC50 [2]: 15.3 µM (active)
- AC50 [3]: 1.2 µM (active)
- AC50 [4]: > 70 µM (inactive)
- AC50 [5]: 1.21 µM (active)

SMILES: CC1CCC(NC(=O)c2ccc(NC(=O)CC3SC(N4CCCC4)=NC3=O)cc2)CC1 (configuration not stated)
- IC50 [6]: 14.5 µM (active)

SMILES: COC(=O)C1=C(C(=O)OC)C(c2ccccc2O)c2sc(O)nc2S1 (configuration not stated)
- IC50 [7]: > 66 µM (inactive)
- IC50 (Genome polyprotein): 93.2 µM (active)
- IC50 [8]: > 66 µM (inactive)

SMILES: Cc1c(C(=O)Nc2ccc(S(=O)(=O)NCC3CCCO3)cc2)cccc1[N+](=O)[O-] (configuration not stated)
- IC50 [6]: 14.5 µM (active)

SMILES: O=C(Nc1ccc(S(=O)(=O)N2CCOCC2)cc1)c1ccc([N+](=O)[O-])cc1Cl
- EC50 [1]: 867 nM (active)
- IC50 [6]: 15.1 µM (active)
- EC50 [2]: > 30 µM (not active)

SMILES: c1ccc(Sc2ccccc2CN2CCCC2)cc1
- EC50 [9]: > 120 µM (not active)
- EC50 [10]: > 120 µM (not active)
- EC50 [11]: > 120 µM (not active)

SMILES: CCCCCn1c(=O)c(C(=O)OCC)c(Cl)c2ccccc21
- IC50 [6]: 19.1 µM (active)

SMILES: CC#CC(=O)N1CCC(CCc2ccccc2)(C(=O)OCC)CC1
- EC50 [10]: > 120 µM (not active)

SMILES: CC(C)c1nnc(NC(=O)CC(=O)Nc2ccccc2C(=O)O)s1
- EC50 [9]: 16.3 µM (active)
- EC50 [10]: 14.6 µM (active)
- EC50 [11]: 11.3 µM (active)

SMILES: CCOC(=O)c1ccc(NC(=O)CSc2nnc(-c3cccs3)n2CC)cc1
- EC50 [9]: > 120 µM (not active)
- EC50 [10]: > 120 µM (not active)
- EC50 [11]: > 120 µM (not active)

SMILES: O=C(C/C=N\OCc1ccc([N+](=O)[O-])cc1)Nc1ccc(F)cc1F
- IC50 (cells): 33 µM (active)

SMILES: Cc1ccc(OC(=O)CCS(=O)(=O)c2ccc(C)cc2)cc1
- IC50 (cells): < 0.1 µM (active)

SMILES: Cc1ccc(-c2cc(-c3ccc(F)cc3)nc(N)c2C#N)o1
- EC50 [9]: 17.1 µM (active)
- EC50 [10]: > 120 µM (not active)
- EC50 [11]: 49.7 µM (active)

SMILES: CCC(=O)c1ccc(OCc2ccc(C(=O)OC)cc2)cc1
- IC50 (cells): 38.8 µM (active)

SMILES: CC(C)n1c(/C=C/[C@H](O)C[C@H](O)CC(=O)O)c(-c2ccc(F)cc2)c2ccccc21
- AC50 [3]: 1.42 µM (active)
- AC50 [4]: > 70 µM (inactive)
- AC50 [5]: 5.95 µM (active)

SMILES: O=C(COc1ccccc1)Nc1nnc(-c2ccc(Cl)cc2)o1
- IC50 (cells): 34.6 µM (active)

SMILES: CC1=NN(C(=O)c2ccccc2F)C(O)(c2ccc(Cl)cc2)C1 (configuration not stated)
- IC50 (cells): > 50 µM (active)

SMILES: COC(=O)c1sccc1NC(=O)C1CC2CCC1C2 (configuration not stated)
- EC50 [9]: > 120 µM (not active)
- EC50 [10]: > 120 µM (not active)
- EC50 [11]: > 120 µM (not active)

SMILES: C#CCOc1c(Cl)cc(/C=C2/C(=O)ON=C2C)cc1OCC
- IC50 (Genome polyprotein): > 100 µM (active)

SMILES: COc1ccc(NC(=O)c2cc(Cl)ccc2Cl)c([N+](=O)[O-])c1
- EC50 [9]: > 120 µM (not active)
- EC50 [10]: > 120 µM (not active)
- EC50 [11]: > 120 µM (not active)

SMILES: O=C1OC(c2ccccc2)C(C(=O)c2ccc(Cl)cc2)=C1O (configuration not stated)
- IC50 (Genome polyprotein): 83.4 µM (active)

SMILES: Cc1ccccc1-n1nc2c(c1NC(=O)C1CCCC1)CS(=O)(=O)C2
- EC50 [9]: > 120 µM (not active)
- EC50 [10]: > 120 µM (not active)
- EC50 [11]: > 120 µM (not active)

SMILES: Cc1cc(C)n2nc(N)c(N=Nc3ccccc3)c2n1
- EC50 [12]: > 112 µM (not active)
- EC50 [13]: > 112 µM (not active)
- IC50 (cells): 5.78 µM (active)

SMILES: O=C(NCCC1=CCCCC1)C1CCC(CNc2nc(S)nc3ccccc23)CC1 (configuration not stated)
- EC50 [9]: 9.48 µM (active)
- EC50 [10]: > 120 µM (not active)
- EC50 [11]: > 120 µM (not active)

SMILES: CC1=NN(C(N)=S)C(=O)C1N=Nc1c(Br)cc(Br)cc1Br (configuration not stated)
- IC50 [6]: 12 µM (active)
- EC50 [14]: 2.76 µM (active)
- IC50 (Genome polyprotein): 43.5 µM (active)
- EC50 (Streptococcus): 8.6 µM (active)

SMILES: O=C1NC(=O)C(=Cc2cc3c(cc2[N+](=O)[O-])OCO3)C(=O)N1
- AC50 [15]: > 380 µM (inactive)
- IC50 (Genome polyprotein): 21.4 µM (active)
- EC50 (Protein RecA): > 380 µM (inconclusive)

SMILES: Nc1nonc1C(=O)NCCNCc1cc(Br)ccc1OCc1ccc(F)cc1
- AC50 [3]: 3.74 µM (active)
- AC50 [4]: 38.6 µM (active)
- AC50 [5]: 8.32 µM (active)
